{"source": "paper PMC11077972", "about": "“Optimization of the antifungal properties of the bacterial peptide EntV by variant analysis” (mBio, 2024)", "key": {"C. albicans": {"tested_on": "C. albicans", "assay": "C. elegans survival assay after infection with C. albicans", "format": "in vivo, Candida albicans", "details": "1 nM peptide; for Median survival: C. albicans infected C. elegans, 25°C, experiment with 12aa (i+7 staple)", "protocol": "C. elegans infection assays were performed with strain glp-4(bn2);sek-1(km-4) ([40]), which were propagated and maintained on E. coli strain OP50 grown as lawns on nematode growth medium (NGM) agar using standard techniques ([58]). To synchronize the nematodes to the same stage of growth, L1 stage worms on non-starved plates were washed off, filtered through a 10- µm filter (pluriSelect, pluriStrainer 10 µm), harvested by centrifugation at 1,500 rpm for 60 seconds, transferred to OP50-seeded plates, and grown to the L4 stage.\nTo prepare the infection plates, fungal strains were grown in BHI broth overnight at 30°C with agitation. About 500 µL of the culture was plated onto BHI solid medium containing gentamycin (10 µg/mL) and grown for 24 hrs at 37°C. The synchronized L4 C. elegans nematodes were then washed off the OP50 plates in 2 mL sterile M9 buffer and washed once, centrifuging at 800 rpm for 30 seconds to collect the nematodes. Nematodes were infected by placing them on the fungal lawn for 4 hrs at 25°C. Following this exposure, they were washed off the plate and washed four times with 2 mL of sterile M9. The nematodes were then pipetted (~30 per well with two wells per condition for a total of ~60 worms assayed) into six-well plates with 2 mL of the liquid medium (20% BHI broth and 80% M9) containing 1 nM of the peptide. A DMSO-untreated control was used with each experiment. Plates were incubated at 25°C, and worm death was scored daily. Kaplan–Meier survival curves were generated and analyzed, as described in the quantification and statistical analysis section."}, "C. albicans biofilm": {"tested_on": "C. albicans biofilm", "assay": "C. albicans biofilm assay in artificial saliva medium (crystal violet)", "format": "cell-based, Candida albicans", "details": "10 nM peptide", "procedure": "Briefly, C. albicans strains were grown in YPD broth for 18 hrs at 30°C with agitation and then sub-cultured for 4 hrs in the same conditions. Cells were then collected by centrifugation at 16,000 x g for 30 s, washed twice in PBS, and adjusted to a concentration of 5 × 10^6 cells/mL (measured with Countess II, Life Technologies) in PBS treated with the 10 nM peptide. The cell suspension was incubated for 1 hr at 30°C with agitation at 200 rpm. Then, 100 µL of the cell suspension was added to wells of a 96-well tissue culture-treated polystyrene plate (Falcon). The PBS and unadhered cells were removed and then replaced with 200 µL of the artificial saliva medium ([15], [60]) containing the 10 nM peptide. The plate was then incubated at 37°C for 48 h.\nAfter incubation, the medium was gently removed along with any planktonic cells. The biofilm was then stained for 20 min with 50 µL of 0.08% crystal violet solution (Sigma). The crystal violet stain was then aspirated, and the wells were washed four times with sterile water. Biofilms were de-stained with 200 µL of 200 proof ethanol for 20 min, and 100 µL of the ethanol solution was transferred to a new well for analysis."}}, "note": "Where a SMILES comes first, the peptide text is derived from it. Bridges are numbered along the chain shown (N, C = ends). [ ]: non-standard residue; d: D form. R8 = C=CCCCCCC[C@@](C)(N)C(=O)O; S5 = C=CCCC[C@](C)(N)C(=O)O", "data": [{"smiles": "CC(C)C[C@@H]1NC(=O)[C@H](C)NC(=O)[C@H](CC(C)C)NC(=O)[C@H](CCC(N)=O)NC(=O)CNC(=O)[C@@](C)(NC(=O)[C@@H](N)C(C)C)CCC/C=C\\CCCCCC[C@](C)(C(=O)N[C@H](C(=O)N[C@@H](CCC(N)=O)C(=O)N[C@@H](CS)C(N)=O)C(C)C)NC(=O)[C@H](Cc2c[nH]c3ccccc23)NC1=O", "note": "[12aa (i+7 staple)] (H-V[S5]GQLALW[R8]VQC-NH2; staple (Z) 2-9)", "values": [{"measurement": "Protection of C. elegans from C. albicans infection relative to parent peptide", "setting": "C. albicans; survival curves, Mantel–Cox log rank", "value": "remained as effective as the original"}, {"measurement": "Median survival", "setting": "C. albicans; trial 1", "value": 12, "unit": "days"}, {"measurement": "Median survival", "setting": "C. albicans; trial 2", "value": 11.5, "unit": "days"}, {"measurement": "Antifungal activity in biofilm assay", "setting": "C. albicans biofilm", "value": "fully active"}]}]}
